{"source": "patent US8993117B2", "about": "“Devices with multiple surface functionality” (The Trustees of Princeton University, priority 2005, dated 2015)", "key": {"[1]": {"conditions": "one week, cited from earlier work"}, "[2]": {"assay": "Solvent rinsing and tape peel testing of coatings (IR/DRIFT)", "assay_type": "physicochemical", "conditions": "aerosol in THF, room temperature, no heating", "protocol": "Coupons which had been treated were rinsed several times with deposition solvent and, where appropriate, ethanol and/or water, to remove soluble residues. A piece of tape (e.g., 3M red Scotch™ “650” tape or Scotch Masking Tape #234; 37 oz./in. adhesion to steel) was adhered to the derivatized surface of the solvent washed foil sample and quickly removed. The freshly “peeled” coupon was then analyzed again by DRIFT spectroscopy.\nSamples of coupons of aluminum, iron, and titanium, prepared as described above, were treated with an aerosol of n-octadecanephosphonic acid in tetrahydrofuron (THF) at room temperature in the ambient environment. Following the spray application of the acid solution the solvent was allowed to evaporate at ambient temperature and the derivatized surfaces of the coupons were analyzed by FTIR. The surfaces where then washed with THF and analyzed both before and after a peel test using red Scotch™ “650” tape."}, "[3]": {"conditions": "pH 7; cited from earlier work"}, "[4]": {"assay": "Quartz crystal microbalance (QCM) surface coverage / loading of phosphonate coatings on Ti", "assay_type": "physicochemical", "procedure": "The QCM technique allows accurate, gravimetric determination of mass changes on an electrode which is deposited on a piezoelectric quartz crystal. It is, thus, ideal to monitor surface reactions of target metals when they are used as such electrodes: the QCM oscillates at a resonant frequency which is determined by the cut and mass of the crystal, and, just as for a classical oscillator, changes in electrode mass result in changes in crystal resonant frequency. […] Up to three different reference crystals (prepared in different batches) were used as received to calibrate the QCM. […] To ensure that monolayer coverage (at most) occurred on Ti surface, phosphonic acid-based films were subjected to copious rinsing followed by evacuation (≦10^−2 Torr) until a constant crystal frequency was established (within experimental noise levels of ±2 Hz).\nPiezoelectric quarts crystals (International Crystal Manufacturers [ICM]; AT-cut, 1000 Å Ti electrodes, 10 MHz, overtone polished, 0.201 in. electrode diameter) were used for film deposition and as references. […] In each experimental run, the fundamental frequency (fo) of an unreacted crystal was measured. […] A new frequency (fc) was then measured. The crystal was then subjected to rinsing followed by evacuation (≦10^−2 Torr) until a constant frequency was measured (±2 Hz), assumed to be a monolayer coverage of the Ti electrodes. […]"}, "[5]": {"assay": "Hydrolytic stability of DANSYL-RGDC labelled diphosphonate SAM by fluorimetry", "assay_type": "physicochemical", "conditions": "after about 96 hours at pH 7.5, cleaved at about pH 12", "protocol": "To further test the stability of diphosphonate SAMs towards aqueous conditions, fluorimetry was employed. Coupons of Ti-mPEG were then exposed to vapor of […] to yield the surface-bound complex. The complex modified coupons were then treated with a solution of 6-maleimidohexanoic acid in THF and were then rinsed thoroughly, and analyzed via IR (vCO≈1705 cm^−1). The coupons were then placed in a solution of N-(5-dimethylamino-1-naphthyl-sulfonyl)-RGDC (DANSYL-RGDC), then rinsed thoroughly, and probed via IR (vpeptide-CO≈1650-1690 cm^−1). The DANSYL group provides a fluorescent “tag” with which to monitor hydrolysis of the surface.\nFluorophore-labeled coupons were immersed in water at about pH 7.5. Fluorescence intensity of the supernatant was measured over about 90 hours; a calibration curve of DANSYL-RGDC was also prepared to relate concentrations in solution with fluorescence intensity, according to Beer's Law. […] Fluorescence intensity in the supernatant was measured against a second calibration curve of DANSYL-RGDC at about pH 12, and the solution concentration was determined by Beer's Law. […] At this point, the DANSYL-RGDC remaining on the surface was measured by exposing the coupon to strong alkaline (about pH 12) for about 3 hours to cleave any remaining zirconium complex species from the SAM. […]"}, "αvβ3 integrins": {"molecular_target": "αvβ3 integrins (Homo sapiens, UniProt P05106+P06756)", "sequence (P06756 31-1048)": "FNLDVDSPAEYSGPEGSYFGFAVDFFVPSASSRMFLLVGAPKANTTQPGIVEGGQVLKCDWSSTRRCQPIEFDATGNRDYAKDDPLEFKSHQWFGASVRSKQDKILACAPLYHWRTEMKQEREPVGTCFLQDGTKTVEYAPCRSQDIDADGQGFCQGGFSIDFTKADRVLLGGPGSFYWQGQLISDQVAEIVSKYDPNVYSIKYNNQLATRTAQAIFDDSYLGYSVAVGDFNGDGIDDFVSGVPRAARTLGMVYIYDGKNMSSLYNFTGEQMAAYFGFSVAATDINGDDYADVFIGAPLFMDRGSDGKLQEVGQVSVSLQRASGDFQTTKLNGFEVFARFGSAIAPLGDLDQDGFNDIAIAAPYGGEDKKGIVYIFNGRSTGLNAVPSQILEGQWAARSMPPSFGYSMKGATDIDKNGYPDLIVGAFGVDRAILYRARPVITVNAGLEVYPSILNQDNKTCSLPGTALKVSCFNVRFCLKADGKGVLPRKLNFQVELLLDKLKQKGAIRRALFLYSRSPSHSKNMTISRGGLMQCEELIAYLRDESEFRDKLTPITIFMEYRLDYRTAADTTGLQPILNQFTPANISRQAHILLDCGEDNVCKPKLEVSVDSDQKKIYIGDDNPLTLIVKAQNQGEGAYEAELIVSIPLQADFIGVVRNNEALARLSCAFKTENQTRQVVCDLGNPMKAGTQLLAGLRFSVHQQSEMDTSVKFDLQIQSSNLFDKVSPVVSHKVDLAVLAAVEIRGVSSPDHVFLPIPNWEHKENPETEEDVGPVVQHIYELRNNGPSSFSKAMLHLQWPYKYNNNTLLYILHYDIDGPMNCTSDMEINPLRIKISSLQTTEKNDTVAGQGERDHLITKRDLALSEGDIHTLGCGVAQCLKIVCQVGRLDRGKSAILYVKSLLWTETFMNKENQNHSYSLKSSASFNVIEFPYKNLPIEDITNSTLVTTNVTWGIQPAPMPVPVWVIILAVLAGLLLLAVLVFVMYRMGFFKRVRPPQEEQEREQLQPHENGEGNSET", "sequence (P05106 27-788)": "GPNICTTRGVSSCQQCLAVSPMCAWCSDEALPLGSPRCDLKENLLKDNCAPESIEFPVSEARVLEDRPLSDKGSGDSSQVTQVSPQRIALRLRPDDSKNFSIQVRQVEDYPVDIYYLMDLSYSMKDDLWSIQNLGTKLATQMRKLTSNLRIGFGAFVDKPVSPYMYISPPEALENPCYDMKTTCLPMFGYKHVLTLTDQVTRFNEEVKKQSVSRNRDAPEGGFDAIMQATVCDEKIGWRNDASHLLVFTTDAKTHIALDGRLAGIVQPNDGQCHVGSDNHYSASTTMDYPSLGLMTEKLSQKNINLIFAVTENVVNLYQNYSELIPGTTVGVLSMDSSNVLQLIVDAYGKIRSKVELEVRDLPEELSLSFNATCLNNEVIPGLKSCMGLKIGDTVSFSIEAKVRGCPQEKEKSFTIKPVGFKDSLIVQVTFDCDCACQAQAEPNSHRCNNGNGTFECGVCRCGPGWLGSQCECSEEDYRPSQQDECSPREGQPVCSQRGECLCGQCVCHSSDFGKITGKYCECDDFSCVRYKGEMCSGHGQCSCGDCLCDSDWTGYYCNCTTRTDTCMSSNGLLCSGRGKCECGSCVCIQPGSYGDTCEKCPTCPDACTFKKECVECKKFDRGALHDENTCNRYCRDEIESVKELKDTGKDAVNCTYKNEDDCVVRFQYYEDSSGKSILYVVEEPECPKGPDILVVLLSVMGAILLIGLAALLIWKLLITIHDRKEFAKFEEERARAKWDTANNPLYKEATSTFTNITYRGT", "conditions": "cited from earlier work"}}, "data": [{"compound": "CCCCCCCCCCCCCCCCCC[Si](C)(C)Cl", "note": "[octadecyldimethylchlorosilane]", "values": [{"measurement": "Surface hydrolysis of coated powders (in words)", "setting": "[1]", "value": "almost total surface hydrolysis"}]}, {"compound": "CCCCCCCCCCCCCCCCCCP(=O)(O)O", "note": "[octadecylphosphonic acid]", "values": [{"measurement": "Persistence of phosphonic acid layer after washing and peel test, aluminum native oxide", "setting": "[2]", "value": "survives washing, but not peel testing"}, {"measurement": "Persistence of phosphonic acid layer after washing and peel test, iron native oxide", "setting": "[2]", "value": "survives both washing and peel testing"}, {"measurement": "Persistence of phosphonic acid layer after washing, titanium native oxide", "setting": "[2]", "value": "readily removed by washing with the deposition solvent"}, {"measurement": "Bound material lost from the surface of TiO2", "setting": "[1]; neutral pH", "value": 16, "unit": "%"}, {"measurement": "Bound material lost from the surface of ZrO2", "setting": "[1]; neutral pH", "value": 5, "unit": "%"}]}, {"compound": "(cyclo)-1,6 acetyl-CRGDF-penicillamine-NH2", "values": [{"measurement": "Stability relative to linear RGDF", "setting": "[3]", "value": 30, "unit": "times"}]}, {"compound": "Arg-Gly-Asp-Cys (RGDC; printed: Arg-Gly-Asp-Cys) [cysteine modified fibronectin cell attachment peptide]", "values": [{"measurement": "RGDC loadings on SAMs of 11-hydroxyphosphonate on Ti", "setting": "[4]", "value": "~0.52", "unit": "nmol/cm^2"}]}, {"compound": "N-(5-dimethylamino-1-naphthyl-sulfonyl)-RGDC [DANSYL-RGDC]", "values": [{"measurement": "Surface loading of DANSYL-RGDC stable at about pH 7.5", "setting": "[5]", "value": "about 0.58 nmol/cm^2"}]}, {"compound": "cyclic (RGDFV-)", "values": [{"measurement": "Specificity towards αvβ3 integrins relative to linear GRGDSPK", "setting": "αvβ3 integrins", "value": "over 100 times"}]}]}
